Drawing on patent publication US12357603B2, “Acyl sulfonamides for treating cancer” (Bayer Aktiengesellschaft, priority 2019, dated 2025), this text covers IC50 and EC50 for 21 molecules.

The target in experiment [1] is Recombinant human His-tagged Kat6a protein (amino acids 194-810) (Homo sapiens (Human), UniProt Q92794). The experiment can be described thus: Kat6a activity assay (TR-FRET, acetylation of biotinylated Histone-H4-derived peptide). Format: biochemical. The settings on record: 60 mins at 22° C., read-out: KAT6A-DPF/HAT domain IC50 [mol/l] (arithmetic mean). An outline of the steps:
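Sf9-expressed human His-Kat6a (aa 194-810) incubated 60 min at 22 °C with compounds (0.01-20 μM) in Tris pH 8 buffer containing 220 nM biotinylated H4 peptide (aa 1-24) and 600 nM acetyl-CoA. Acetyl-K8 detected by TR-FRET (665/620 nm ratio); IC50 by four-parameter fit versus DMSO controls.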

The subject of experiment [2] is ESR1 transcription (luciferase signal in MVLN cells). Kind of experiment: Repression of ESR1 transcription, luciferase reporter in MVLN cells. Format: cell-based. Particulars: Homo sapiens, MVLN, inhibition of luciferase signal in MVLN cells; arithmetic mean. An outline of the steps:
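MVLN cells (constitutive ER, stably carrying a Vitellogenin A2 hormone-responsive element–luciferase reporter) treated in duplicate; luciferase read after 24 h. Cell density checked by Alamar Blue fluorescence (530/590 nm) after 2 h to exclude cell-loss effects.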
For orientation: In a reporter assay the amount or activity of a reporter protein is the signal.

The next experiment relates to MDA-MB-436 cells. Kind of experiment: Proliferation assay MDA-MB-436, negative control cell line (Alamar Blue, 144 h). Format: cell-based. Particulars: Homo sapiens, MDA-MB-436, 144 h, arithmetic mean. The text has this: (§1) Proliferation Assays for Compound Characterization
(§2) For compound characterization cell survival assays were routinely run in two cell lines. ZR-75-1 is a breast carcinoma cell line containing a focal KAT6A amplification and high KAT6A protein expression. Proliferation of this cell line is inhibited upon treatment with KAT6A inhibitors. As a negative control cell line MDA-MB-436 were used. These cells carry a […] deletion of the KAT6A gene, have a low KAT6A protein expression and are not growth inhibited upon treatment with KAT6A inhibitors.
(§3) For measurements cell lines were plated at the below indicated concentration per […] in 96-well plates in a humidified incubator at 37° C. and 5% CO2.
MDA-MB-436 (CLS, 300278; breast adenocarcinoma); 3000 cells per well; culture medium: DMEM/Ham's F12 (Biochrom #FG 4815) medium containing 2.5% FBS (Biochrom #S0615).
(§4) 24 hours later, cells were treated with compounds (stock solution, 10 mM in DMSO) using the HP D300 Digital Dispenser in a concentration range of 2.0×10E-5 M to 2.0×10E-9 M in a single-dot curve with 9 dilutions and a DMSO concentration of 0.2%. Each sample was prepared as triplicate and rim wells were excluded. Plates were incubated at 37° C. and 5% CO2 for 144 h. Cell viability was measured by adding 10 μL of Alamar Blue Reagent (Invitrogen #DAL 1100) and plates were incubated for 2 h at 37° C. and 5% CO2. Fluorescence was measured at 590 nm wavelength with a Tecan Spark or Victor X3 MTP-Reader (PerkinElmer).
(The colour change of resazurin is a common sign of viable cells or microbes.)

The next experiment relates to ZR-75-1 cells. Kind of experiment: Proliferation assay ZR-75-1 (Alamar Blue, 144 h). The experiment is classed as cell-based. Particulars: Homo sapiens, ZR-75-1, 144 h, arithmetic mean, read-out: ZR75-1 proliferation assay, EC50 [M] (arithmetic mean).
Excerpt: as §1, §2, §3
ZR-75-1 (ATCC, CRL-1500; breast carcinoma); 3000 cells per well; culture medium: RPMI 1640 (Biochrom #FG 1215) medium containing 2.5% FBS (Biochrom #S0615).
as §4

Sequence of Recombinant human His-tagged Kat6a protein (amino acids 194-810) (Q92794 194-810): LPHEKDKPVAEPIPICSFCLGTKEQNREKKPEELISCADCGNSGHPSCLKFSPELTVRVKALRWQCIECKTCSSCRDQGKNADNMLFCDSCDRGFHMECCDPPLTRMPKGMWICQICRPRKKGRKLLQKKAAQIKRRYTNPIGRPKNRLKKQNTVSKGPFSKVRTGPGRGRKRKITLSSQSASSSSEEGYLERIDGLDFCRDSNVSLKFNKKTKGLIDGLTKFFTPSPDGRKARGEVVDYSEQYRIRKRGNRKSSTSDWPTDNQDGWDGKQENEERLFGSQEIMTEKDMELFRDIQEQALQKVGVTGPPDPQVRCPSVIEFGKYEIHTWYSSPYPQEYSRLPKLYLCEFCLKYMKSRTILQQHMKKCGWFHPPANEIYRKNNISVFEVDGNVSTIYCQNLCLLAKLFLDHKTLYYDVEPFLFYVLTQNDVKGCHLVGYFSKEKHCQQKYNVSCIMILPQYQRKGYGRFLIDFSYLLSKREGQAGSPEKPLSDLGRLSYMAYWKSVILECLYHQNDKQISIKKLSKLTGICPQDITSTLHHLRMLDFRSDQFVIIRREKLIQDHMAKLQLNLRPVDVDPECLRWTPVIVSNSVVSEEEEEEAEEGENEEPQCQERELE

For `CCOc1ccc(C(C)CC)cc1S(=O)(=O)NC(=O)c1cc2ccc(N(C)C)cc2o1` (racemic) [Example 170, 6-(Dimethylamino)-N-(2-ethoxy-5-sec-butyl-phenyl)sulfonyl-benzofuran-2-carboxamide (rac)], the values for the IC50 in experiment [1] and in experiment [2] were 4.4 nM and 22.1 nM, respectively. Besides, the EC50 with MDA-MB-436 cells was over 20000 nM; in the experiment on ZR-75-1 cells it was 3.02e-08 M.

Turning to `CN(C)c1ccc2cc(C(=O)NS(=O)(=O)c3ccc(Cl)cc3Cl)oc2c1` [Example 27, N-(2,4-Dichlorobenzene-1-sulfonyl)-6-(dimethylamino)-1-benzofuran-2-carboxamide], the IC50 in experiment [1] is 134 nM; in experiment [2], 1750 nM. The EC50 is over 20000 nM in the experiment on MDA-MB-436 cells and 1.73e-06 M in the experiment with ZR-75-1 cells.

For `CN1Cc2cccc(S(=O)(=O)NC(=O)c3cc4ccc(N(C)C)cc4o3)c2C1=O` [Example 95, 6-(Dimethylamino)-N-(2-methyl-3-oxo-2,3-dihydro-1H-isoindole-4-sulfonyl)-1-benzofuran-2-carboxamide], the IC50 in experiment [1] is 150 nM; in experiment [2], 488 nM. In addition, the EC50 is over 20000 nM in the experiment on MDA-MB-436 cells and 7.18e-07 M in the experiment with ZR-75-1 cells.

As to `CN(C)c1ccc2cc(C(=O)NS(=O)(=O)c3ccccc3OC(F)(F)C(F)(F)F)oc2c1` [Example 96, 6-(Dimethylamino)-N-[2-(pentafluoroethoxy)benzene-1-sulfonyl]-1-benzofuran-2-carboxamide], the IC50 in experiment [1] was 260 nM; in experiment [2] it was 556 nM. Further, the figures for the EC50 with MDA-MB-436 cells and in the experiment with ZR-75-1 cells were over 20000 nM and 1e-06 M, respectively.

`CN(C)c1ccc2cc(C(=O)NS(=O)(=O)c3c(Cl)cccc3C(F)(F)F)oc2c1` [Example 97, N-[2-Chloro-6-(trifluoromethyl)benzene-1-sulfonyl]-6-(dimethylamino)-1-benzofuran-2-carboxamide]: the IC50 stood at 465 nM in experiment [1] and 571 nM in experiment [2]. Also, the EC50 with MDA-MB-436 cells was over 20000 nM; with ZR-75-1 cells, 6.15e-07 M.

Turning to `CN(C)c1ccc2cc(C(=O)NS(=O)(=O)c3ccccc3)oc2c1` [Example 99, N-(benzenesulfonyl)-6-(dimethylamino)-1-benzofuran-2-carboxamide], the IC50 in experiment [1] amounted to 645 nM; in experiment [2], 672 nM. For the same molecule, the EC50 with MDA-MB-436 cells is over 20000 nM; with ZR-75-1 cells, 6.63e-07 M.

Regarding `Cc1cc(Cn2cccn2)cc(S(=O)(=O)NC(=O)c2cc3ccc(N(C)C)cc3o2)c1C` [Example 100], the IC50 worked out at 177 nM in experiment [1] and 974 nM in experiment [2]. Further, the EC50 with MDA-MB-436 cells was over 20000 nM; in the experiment on ZR-75-1 cells, 1.12e-06 M.

`CCc1ccc(Cn2cccn2)cc1S(=O)(=O)NC(=O)c1cc2ccc(N(C)C)cc2o1` [Example 102, 6-(Dimethylamino)-N-{2-ethyl-5-[(1H-pyrazol-1-yl)methyl]benzene-1-sulfonyl}-1-benzofuran-2-carboxamide]: the figures for the IC50 in experiment [1] and in experiment [2] were 489 nM and 1470 nM, respectively. The EC50 was over 20000 nM with MDA-MB-436 cells and 1.95e-06 M in the experiment on ZR-75-1 cells.

On to `COc1cc(S(=O)(=O)NC(=O)c2cc3ccc(N(C)C)cc3o2)cc(Cn2cccn2)c1OC` [Example 103, N-{3,4-Dimethoxy-5-[(1H-pyrazol-1-yl)methyl]benzene-1-sulfonyl}-6-(dimethylamino)-1-benzofuran-2-carboxamide], for which the IC50 turned out to be 1210 nM in experiment [1] and 2950 nM in experiment [2]. In addition, the EC50 with MDA-MB-436 cells is over 20000 nM; with ZR-75-1 cells, 2.6e-06 M.

`CCc1ccccc1S(=O)(=O)NC(=O)c1cc2ccc(N(C)C)cc2o1` [Example 104, 6-(Dimethylamino)-N-(2-ethylbenzene-1-sulfonyl)-1-benzofuran-2-carboxamide]: the IC50 in experiment [1] was determined as 1100 nM; in experiment [2], 3190 nM. The figures for the EC50 in the experiment on MDA-MB-436 cells and in the experiment with ZR-75-1 cells were over 20000 nM and 3e-06 M, respectively.

`Cc1cccnc1CS(=O)(=O)NC(=O)c1cc2ccc(N(C)C)cc2o1` [Example 105, 6-(Dimethylamino)-N-[(3-methylpyridin-2-yl)methanesulfonyl]-1-benzofuran-2-carboxamide]: the IC50 in experiment [1] was 1960 nM; in experiment [2], 11600 nM. The EC50 with MDA-MB-436 cells is over 20000 nM; with ZR-75-1 cells it was 3.72e-06 M.

For the molecule `Cc1ccc2cccc(S(=O)(=O)NC(=O)c3cc4c(F)cc(N(C)C)cc4o3)c2n1` [Example 108, 6-(Dimethylamino)-4-fluoro-N-(2-methylquinoline-8-sulfonyl)-1-benzofuran-2-carboxamide], the IC50 turned out to be 4.6 nM in experiment [1] and 9.1 nM in experiment [2]. The EC50 with MDA-MB-436 cells is over 18600 nM; in the experiment with ZR-75-1 cells it was 8.07e-08 M.

On to `CC(C)Oc1ccccc1S(=O)(=O)NC(=O)c1cc2c(F)cc(N(C)C)cc2o1` [Example 109, 6-(Dimethylamino)-4-fluoro-N-{2-[(propan-2-yl)oxy]benzene-1-sulfonyl}-1-benzofuran-2-carboxamide], for which the values for the IC50 in experiment [1] and in experiment [2] were 7.09 nM and 9.67 nM, respectively. The EC50 is over 20000 nM with MDA-MB-436 cells and 3.7e-08 M in the experiment with ZR-75-1 cells.

In the case of `CN(C)c1ccc2cc(C(=O)NS(=O)(=O)c3ccc(Br)cc3OC(F)(F)F)oc2c1` [Example 118, N-[4-Bromo-2-(trifluoromethoxy)benzene-1-sulfonyl]-6-(dimethylamino)-1-benzofuran-2-carboxamide], the IC50 in experiment [1] came out at 52.4 nM; in experiment [2], 555 nM. Further, the EC50 with MDA-MB-436 cells was over 20000 nM; in the experiment on ZR-75-1 cells, 9.57e-07 M.

Take `CCOc1nccc(C(F)(F)F)c1S(=O)(=O)NC(=O)c1cc2ccc(N(C)C)cc2o1` [Example 120, 6-(Dimethylamino)-N-[2-ethoxy-4-(trifluoromethyl)pyridine-3-sulfonyl]-1-benzofuran-2-carboxamide]: the results for the IC50 in experiment [1] and in experiment [2] were 1850 nM and 891 nM, respectively. Besides, the EC50 with MDA-MB-436 cells is over 20000 nM; in the experiment with ZR-75-1 cells, 4.57e-07 M.

For the molecule `CCOc1c(Cl)cccc1S(=O)(=O)NC(=O)c1cc2ccc(N(C)C)cc2o1` [Example 122, N-(3-Chloro-2-ethoxybenzene-1-sulfonyl)-6-(dimethylamino)-1-benzofuran-2-carboxamide], the IC50 was found to be 252 nM in experiment [1] and 453 nM in experiment [2]. Also, the EC50 was over 20000 nM in the experiment with MDA-MB-436 cells and 9.44e-07 M with ZR-75-1 cells.

`CCOc1ccc(NC(C)=O)cc1S(=O)(=O)NC(=O)c1cc2ccc(N(C)C)cc2o1` [Example 128, N-(5-Acetamido-2-ethoxybenzene-1-sulfonyl)-6-(dimethylamino)-1-benzofuran-2-carboxamide]: the IC50 in experiment [1] was found to be 351 nM; in experiment [2], 7800 nM. For the same molecule, the EC50 was over 20000 nM in the experiment with MDA-MB-436 cells and 1.49e-06 M with ZR-75-1 cells.

Take `Cc1ccc(S(=O)(=O)NC(=O)c2cc3ccc(N(C)C)cc3o2)c(N)n1` [Example 130, N-(2-Amino-6-methylpyridine-3-sulfonyl)-6-(dimethylamino)-1-benzofuran-2-carboxamide]: the IC50 in experiment [1] turned out to be 2180 nM; in experiment [2], 4360 nM. The EC50 with MDA-MB-436 cells is 15100 nM; in the experiment with ZR-75-1 cells it was 2.93e-06 M.

Regarding `CCc1ncnc(OC)c1S(=O)(=O)NC(=O)c1cc2ccc(N(C)C)cc2o1` [Example 131, 6-(Dimethylamino)-N-(4-ethyl-6-methoxypyrimidine-5-sulfonyl)-1-benzofuran-2-carboxamide], the IC50 in experiment [1] was 470 nM; in experiment [2] it was 325 nM. The EC50 with MDA-MB-436 cells was over 20000 nM; with ZR-75-1 cells, 8.31e-07 M.

For the molecule `CCCOc1cccc(C)c1S(=O)(=O)NC(=O)c1cc2ccc(N(C)C)cc2o1` [Example 133, 6-(Dimethylamino)-N-(2-methyl-6-propoxybenzene-1-sulfonyl)-1-benzofuran-2-carboxamide], the results for the IC50 in experiment [1] and in experiment [2] were 325 nM and 323 nM, respectively. The EC50 is over 20000 nM in the experiment on MDA-MB-436 cells and 4.88e-07 M in the experiment on ZR-75-1 cells.

As for `CN(C)c1ccc2cc(C(=O)NS(=O)(=O)c3cc(Br)cnc3Cl)oc2c1` [Example 136], the values for the IC50 in experiment [1] and in experiment [2] were 796 nM and 15400 nM, respectively. For the same molecule, the EC50 is over 20000 nM with MDA-MB-436 cells and 5.54e-06 M in the experiment on ZR-75-1 cells.
